Measurements as given in patent US5489592A, “3,4-dihydro-4-oxo-3-(2-propenyl)-1-phthalazineacetic acids and derivatives, their preparations and medicines containing them” (Lipha, Lyonnaise Industrielle Pharmaceutique, priority 1991, dated 1996).

Key:
aldose reductase = molecular target: T1, aldose reductase (Rattus norvegicus, UniProt P07943); test: In vitro study: inhibition of aldose reductase; assay type: biochemical, male Wistar rats; conditions: rat crystallin enzyme, NADPH, L-glyceraldehyde, 340 nm; confidence interval in parentheses
T1 construct: The aldose reductase used is obtained from crystallins from male Wistar rats; from tissue; host or cells: eye lens of male Wistar rats, enzymatic extract
Experimental: 1) In vitro study: inhibition of aldose reductase
The aldose reductase used is obtained from crystallins from male Wistar rats according to a modification of the method of S. Hayman et al. (Journal of Biological Chemistry, 240, p. 877, 1965). The enzymatic extract is diluted in a phosphate buffer in the presence of NADPH and of various concentrations of the products to be tested. The reaction is triggered by L-glyceraldehyde and the rate of reaction is measured by monitoring the disappearance of NADPH by spectrophotometry at 340 nm. The inhibition of the rate of reaction is calculated for each concentration of products and then the concentration necessary for a 50% inhibition (IC50) is evaluated by linear interpolation.

[1] = system: level of sorbitol in the crystallins; test: In vivo study: reduction in the accumulation of sorbitol in streptozotocin-diabetic rats; set-up: species or system male Wistar rats; conditions: Rattus norvegicus, oral, 4, 30 and 52 h after streptozotocin (60 mg/kg i.v.), 50% reduction, confidence interval in parentheses
Experimental: 2) In vivo study: reduction in the accumulation of sorbitol
Male Wistar rats, weighing 200 to 250 g, are made diabetic by intravenous injection of streptozotocin (60 mg/kg). They then receive an oral treatment of the products to be tested, in the form of a 10% suspension in gum arabic, 4 hours, 30 hours and 52 hours after injection of streptozotocin. Eighteen hours after the last oral treatment, the rats are stunned and decapitated and their crystallins are then withdrawn. After extraction, the level of sorbitol in the crystallins is measured according to the enzymatic method described by H. U. Bergmeyer (Methods of Enzymatic Analysis, edited by H. U. Bergmeyer, Academic Press, New York, 3, p. 1323, 1974).
Various doses of products are tested and the inhibitions are calculated with respect to a control batch of diabetic rats. The dose necessary for a 50% reduction in the level of sorbitol is then evaluated by linear interpolation.

Compound | IC50 (aldose reductase) [nM] | ED50 [1] [mg/kg]
O=C(O)Cc1nn(C/C=C/c2cccc(C(F)(F)F)c2F)c(=O)c2ccccc12 [Example B1, (E) -3-[3-[2-fluoro-3-(trifluoromethyl)phenyl]-2-propenyl]-3,4-dihydro-4-oxo-1-phthalazineacetic acid] | 10.2 | 4.8
O=C(O)Cc1nn(C/C=C/c2c(F)c(F)cc(F)c2F)c(=O)c2ccccc12 [Example B43, (E) -3-[3-(2,3,5,6-tetrafluorophenyl)-2-propenyl]-3,4-dihydro-4-oxo-1-phthalazineacetic acid] | 9.6 | 5.8
O=C(O)Cc1nn(C/C(F)=C/c2cccc(C(F)(F)F)c2)c(=O)c2ccccc12 [Example B49, (Z) -3-[2-fluoro-3-[3-(trifluoromethyl)phenyl]-2-propenyl]-3,4-dihydro-4-oxo-1-phthalazineacetic acid] | 8.4 | 8.2
O=C(O)Cc1nn(C/C=C/c2c(F)ccc(Br)c2F)c(=O)c2ccccc12 [Example B40, (E) -3-[3-(3-bromo-2,6-difluorophenyl)-2-propenyl]-3,4-dihydro-4-oxo-1-phthalazineacetic acid] | 8.2 | 6.1
O=C(O)Cc1nn(C/C=C/c2c(F)ccc(C(F)(F)F)c2F)c(=O)c2ccccc12 [Example B41, (E) -3-[3-[2,6-difluoro-3-(trifluoromethyl)phenyl]-2-propenyl]-3,4-dihydro-4-oxo-1-phthalazineacetic acid] | 8.6 | 4.4
O=C(O)Cc1nn(C/C=C/c2c(F)ccc(F)c2F)c(=O)c2ccccc12 [Example B38, (E) -3-[3-(2,3,6-trifluorophenyl)-2-propenyl]-3,4-dihydro-4-oxo-1-phthalazineacetic acid] | 8.9 | 4.7
